Drawing on patent US12539292B2, “BRM targeting compounds and associated methods of use” (Arvinas Operations, Inc., priority 2018, dated 2026), this text covers DC50 and Dmax for twelve molecules.

What is called DC50 is the midpoint of the concentration-degradation curve. The term Dmax denotes the largest share of the target that was removed.

Each structure is given as a SMILES string. Like-named read-outs stand apart in the source and are kept apart here. Some results are limits rather than exact numbers.

The assay addresses T1, BRM (Homo sapiens, UniProt P51531).
T1 construct: In-Cell Western Screen of BRM Degradation in SW1573 Cells; endogenous in cells; host or cells: SW1573
In words: In-cell Western screen of BRM degradation in SW1573 cells (Dmax and DC50). The assay is classed as cell-based. A digest of the protocol:
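SW1573, overnight cpd exposure (18-20 h), 0.1% DMSO final. PFA fix, 0.5% Triton permeabilization, block; IR secondaries at 800/680 nm. Odyssey read → Dmax, DC50.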

[1] abbreviates: target protein degradation, read-out: BRM DC50.
Setting [2] is: BRM degradation, SW1573 cells, read-out: DC50.
Where [3] appears, read: BRM degradation, SW1573 cells, tested at the top concentration of between 0.3 and 10 μM, read-out: Dmax (%) (% degraded).
The mark [4] stands for this setting: BRM degradation, SW1573 cells, when tested at the top concentration of between 0.3 and 10 μM, read-out: Dmax (%) (% degraded).

T1 sequence (P51531 whole entry): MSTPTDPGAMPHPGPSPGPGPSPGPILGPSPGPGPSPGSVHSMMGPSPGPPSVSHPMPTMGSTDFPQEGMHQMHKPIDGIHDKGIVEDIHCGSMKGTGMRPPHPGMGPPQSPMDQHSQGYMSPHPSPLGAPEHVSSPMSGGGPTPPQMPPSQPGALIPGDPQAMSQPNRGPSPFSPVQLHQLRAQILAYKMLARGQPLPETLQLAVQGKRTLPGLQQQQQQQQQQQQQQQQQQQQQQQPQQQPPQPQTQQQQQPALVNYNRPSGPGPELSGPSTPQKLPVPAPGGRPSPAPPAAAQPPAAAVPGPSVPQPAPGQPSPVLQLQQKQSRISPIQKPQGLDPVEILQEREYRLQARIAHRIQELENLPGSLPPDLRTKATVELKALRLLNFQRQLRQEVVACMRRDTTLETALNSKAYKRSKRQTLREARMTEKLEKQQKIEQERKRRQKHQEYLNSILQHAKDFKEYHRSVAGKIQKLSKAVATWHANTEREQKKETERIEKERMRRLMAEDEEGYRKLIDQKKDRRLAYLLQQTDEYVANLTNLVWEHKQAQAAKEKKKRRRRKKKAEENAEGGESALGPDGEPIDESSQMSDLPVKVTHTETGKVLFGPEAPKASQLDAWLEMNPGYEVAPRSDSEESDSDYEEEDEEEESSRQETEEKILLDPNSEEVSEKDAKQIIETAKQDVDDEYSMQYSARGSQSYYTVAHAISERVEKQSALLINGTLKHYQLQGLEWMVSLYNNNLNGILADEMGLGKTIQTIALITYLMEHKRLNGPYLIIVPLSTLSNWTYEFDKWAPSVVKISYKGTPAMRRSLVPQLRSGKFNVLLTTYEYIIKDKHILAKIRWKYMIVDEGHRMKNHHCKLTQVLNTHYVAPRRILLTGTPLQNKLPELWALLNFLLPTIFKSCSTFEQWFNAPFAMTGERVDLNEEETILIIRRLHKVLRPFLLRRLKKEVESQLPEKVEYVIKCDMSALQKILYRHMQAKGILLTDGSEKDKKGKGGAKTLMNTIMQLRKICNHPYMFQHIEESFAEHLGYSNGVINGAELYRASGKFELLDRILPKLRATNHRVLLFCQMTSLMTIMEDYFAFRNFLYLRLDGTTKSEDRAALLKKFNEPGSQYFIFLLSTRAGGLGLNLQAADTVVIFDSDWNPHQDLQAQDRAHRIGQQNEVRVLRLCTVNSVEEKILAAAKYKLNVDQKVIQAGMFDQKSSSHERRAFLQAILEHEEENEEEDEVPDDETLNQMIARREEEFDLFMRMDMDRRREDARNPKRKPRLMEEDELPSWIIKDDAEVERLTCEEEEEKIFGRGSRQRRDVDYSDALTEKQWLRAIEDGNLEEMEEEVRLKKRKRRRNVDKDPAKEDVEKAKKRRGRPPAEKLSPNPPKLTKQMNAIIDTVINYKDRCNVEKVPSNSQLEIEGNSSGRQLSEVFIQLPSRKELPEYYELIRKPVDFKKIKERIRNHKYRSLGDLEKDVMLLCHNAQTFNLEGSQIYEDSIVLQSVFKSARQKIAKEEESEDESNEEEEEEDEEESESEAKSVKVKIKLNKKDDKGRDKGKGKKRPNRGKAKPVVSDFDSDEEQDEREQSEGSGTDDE

On to `CC(C)[C@H](C(=O)N1C[C@H](O)C[C@H]1C(=O)N[C@@H](C)c1ccc(-c2nncs2)cc1)c1cc(OCCN2CCC(O[C@H]3C[C@H](Oc4cc(N5C6CCC5CN(c5cc(-c7ccccc7O)nnc5N)C6)ccn4)C3)CC2)no1` [compound 363, (2S,4R)-N-((S)-1-(4-(1,3,4-thiadiazol-2-yl)phenyl)ethyl)-1-((2S)-2-(3-(2-(4-((1r,3S)-3-((4-(3-(3-amino-6-(2-hydroxyphenyl)pyridazin-4-yl)-3,8-diazabicyclo[3.2.1]octan-8-yl)pyridin-2-yl)oxy)cyclobutoxy)piperidin-1-yl)ethoxy)isoxazol-5-yl)-3-methylbutanoyl)-4-hydroxypyrrolidine-2-carboxamide], for which the DC50 under setting [1] is over 0.03 µM.
With `Cc1ncsc1-c1ccc([C@@H](NC(=O)[C@@H]2C[C@@H](O)CN2C(=O)[C@@H](c2cc(OCCN3CCC(O[C@H]4C[C@H](Oc5cc(N6C7CCC6CN(c6cc(-c8ccccc8O)nnc6N)C7)ccn5)C4)CC3)no2)C(C)C)C(F)F)cn1` [compound 244, (2S,4R)-1-((2R)-2-(3-(2-(4-((1r,3R)-3-((4-(3-(3-amino-6-(2-hydroxyphenyl)pyridazin-4-yl)-3,8-diazabicyclo[3.2.1]octan-8-yl)pyridin-2-yl)oxy)cyclobutoxy)piperidin-1-yl)ethoxy)isoxazol-5-yl)-3-methylbutanoyl)-N-((R)-2,2-difluoro-1-(6-(4-methylthiazol-5-yl)pyridin-3-yl)ethyl)-4-hydroxypyrrolidine-2-carboxamide], the DC50 under setting [2] is under 0.0025 µM. Under setting [3], the Dmax is over 75%.
For the molecule `Cc1ncsc1-c1ccc([C@H](C)NC(=O)[C@@H]2C[C@@H](O)CN2C(=O)[C@@H](c2cc(OCCOCCOCCCCN3CCC4(CCN(c5cc(-c6ccccc6O)nnc5N)CC4)C3)no2)C(C)C)cc1` [compound 74, (2S,4R)-1-((R)-2-(3-(2-(2-(4-(8-(3-amino-6-(2-hydroxyphenyl)pyridazin-4-yl)-2,8-diazaspiro[4.5]decan-2-yl)butoxy)ethoxy)ethoxy)isoxazol-5-yl)-3-methylbutanoyl)-4-hydroxy-N-((S)-1-(4-(4-methylthiazol-5-yl)phenyl)ethyl)pyrrolidine-2-carboxamide], the 50% degradation concentration (DC50) under setting [2] lay in the range of 0.01 to 0.03 µM. Moreover, the Dmax under setting [4] was over 75%.
Turning to `Cc1ncsc1-c1ccc([C@H](C)NC(=O)[C@@H]2C[C@@H](O)CN2C(=O)[C@H](c2cc(OCCC3CCN(C(=O)[C@H]4C[C@@H](CN5CCC([C@H](C)n6cc(-c7cc(-c8ccccc8O)nnc7N)cn6)CC5)C4)CC3)no2)C(C)C)cc1` [compound 449, (2S,4R)-1-((S)-2-(3-(2-(1-((1R,3R)-3-((4-((S)-1-(4-(3-amino-6-(2-hydroxyphenyl)pyridazin-4-yl)-1H-pyrazol-1-yl)ethyl)piperidin-1-yl)methyl)cyclobutane-1-carbonyl)piperidin-4-yl)ethoxy)isoxazol-5-yl)-3-methylbutanoyl)-4-hydroxy-N-((S)-1-(4-(4-methylthiazol-5-yl)phenyl)ethyl)pyrrolidine-2-carboxamide], the Dmax (SW1573, % degraded, when tested at the top concentration of between 0.3 and 10 μM, read-out: BRM Dmax (%)) was over 75%. Moreover, under setting [1], the DC50 is under 0.0025 µM.
For the molecule `CC(C)[C@H](C(=O)N1C[C@H](O)C[C@H]1C(=O)NCc1ccc(C2(F)CC2)cc1)c1cc(OCCN2CCC(O[C@H]3C[C@H](Oc4cc(N5C6CCC5CN(c5cc(-c7ccccc7O)nnc5N)C6)ccn4)C3)CC2)no1` [compound 418, (2S,4R)-1-((2S)-2-(3-(2-(4-((1r,3S)-3-((4-(3-(3-amino-6-(2-hydroxyphenyl)pyridazin-4-yl)-3,8-diazabicyclo[3.2.1]octan-8-yl)pyridin-2-yl)oxy)cyclobutoxy)piperidin-1-yl)ethoxy)isoxazol-5-yl)-3-methylbutanoyl)-N-(4-(1-fluorocyclopropyl)benzyl)-4-hydroxypyrrolidine-2-carboxamide], under “degradation of BRM, read-out: BRM DC50”, the DC50 is over 0.03 µM.
With `Cc1ncsc1-c1ccc([C@H](C)NC(=O)[C@@H]2C[C@@H](O)CN2C(=O)[C@@H](NC(=O)COC2CN(CCN3CCN(CCCc4cc(N5C6CCC5CN(c5cc(-c7ccccc7O)nnc5N)C6)ccn4)CC3)C2)C(C)(C)C)cc1` [compound 49, (2S,4R)-1-((2S)-2-(2-((1-(2-(4-(3-(4-(3-(3-amino-6-(2-hydroxyphenyl)pyridazin-4-yl)-3,8-diazabicyclo[3.2.1]octan-8-yl)pyridin-2-yl)propyl)piperazin-1-yl)ethyl)azetidin-3-yl)oxy)acetamido)-3,3-dimethylbutanoyl)-4-hydroxy-N-((S)-1-(4-(4-methylthiazol-5-yl)phenyl)ethyl)pyrrolidine-2-carboxamide], the DC50 under setting [2] was over 0.03 µM. Under setting [4], the Dmax was in the range of 50 to 75%.
Regarding `Cc1ncsc1-c1ccc([C@H](C)NC(=O)[C@@H]2C[C@@H](O)CN2C(=O)[C@@H](c2cc(OCCN3CC[C@@H](OCCc4cc(N5C6CCC5CN(c5cc(-c7ccccc7O)nnc5N)C6)ccn4)C[C@@H]3C)no2)C(C)C)cc1` (racemic) [compound 567, (2S,4R)-1-((2R)-2-(3-(2-((2S,4R)-4-(2-(4-(3-(3-amino-6-(2-hydroxyphenyl)pyridazin-4-yl)-3,8-diazabicyclo[3.2.1]octan-8-yl)pyridin-2-yl)ethoxy)-2-methylpiperidin-1-yl)ethoxy)isoxazol-5-yl)-3-methylbutanoyl)-4-hydroxy-N-((S)-1-(4-(4-methylthiazol-5-yl)phenyl)ethyl) pyrrolidine-2-carboxamide], the Dmax (BRM degradation, SW1573 cells, Table 2D, read-out: **Dmax (%) (% degraded)) was over 75%. In addition, under “BRM degradation, SW1573 cells, Table 2D, read-out: *DC50”, the DC50 was in the range of 0.0025 to 0.01 µM.
For `Cc1ncsc1-c1ccc([C@H](C)NC(=O)[C@@H]2C[C@@H](O)CN2C(=O)[C@H](c2cc(OCCC3CCN(C[C@H]4C[C@H](Oc5cc(N6C7CCC6CN(c6cc(-c8ccccc8O)nnc6N)C7)ccn5)C4)CC3)no2)C(C)C)cn1` [compound 287, (2S,4R)-1-((2S)-2-(3-(2-(1-(((1r,3S)-3-((4-(3-(3-amino-6-(2-hydroxyphenyl)pyridazin-4-yl)-3,8-diazabicyclo[3.2.1]octan-8-yl)pyridin-2-yl)oxy)cyclobutyl)methyl)piperidin-4-yl)ethoxy)isoxazol-5-yl)-3-methylbutanoyl)-4-hydroxy-N-((S)-1-(6-(4-methylthiazol-5-yl)pyridin-3-yl)ethyl)pyrrolidine-2-carboxamide], under setting [2], the DC50 is over 0.03 µM.
As for `Cc1ncsc1-c1ccc([C@H](C)NC(=O)[C@@H]2C[C@@H](O)CN2C(=O)[C@H](c2cc(OCCN3CCN(Cc4ccc(C(C)n5cc(-c6cc(-c7ccccc7O)nnc6N)cn5)cc4)CC3)no2)C(C)C)cc1` (stereo partly drawn) [compound 166, (2S,4R)-1-((2S)-2-(3-(2-(4-(4-(1-(4-(3-amino-6-(2-hydroxyphenyl)pyridazin-4-yl)-1H-pyrazol-1-yl)ethyl)benzyl)piperazin-1-yl)ethoxy)isoxazol-5-yl)-3-methylbutanoyl)-4-hydroxy-N-((S)-1-(4-(4-methylthiazol-5-yl)phenyl)ethyl)pyrrolidine-2-carboxamide], the DC50 under setting [2] was in the range of 0.0025 to 0.01 µM. For the same molecule, the Dmax under setting [3] was over 75%.
Consider `Cc1ncsc1-c1ccc(CNC(=O)[C@@H]2C[C@@H](O)CN2C(=O)[C@@H](NC(=O)COCCOCCOCCOCCOCCOCCOCCOc2cc(N3C4CCC3CN(c3cc(-c5ccccc5O)nnc3N)C4)ccn2)C(C)(C)C)cc1` [compound 10, (2S,4R)-1-((2S)-26-((4-(3-(3-amino-6-(2-hydroxyphenyl)pyridazin-4-yl)-3,8-diazabicyclo[3.2.1]octan-8-yl)pyridin-2-yl)oxy)-2-(tert-butyl)-4-oxo-6,9,12,15,18,21,24-heptaoxa-3-azahexacosanoyl)-4-hydroxy-N-(4-(4-methylthiazol-5-yl)benzyl)pyrrolidine-2-carboxamide], for which, under setting [2], the DC50 lay in the range of 0.0025 to 0.01 µM. The Dmax under setting [4] was over 75%.
Consider `Cc1ncsc1-c1ccc([C@H](C)NC(=O)[C@@H]2C[C@@H](O)CN2C(=O)[C@@H](c2cc(N3CCC(CN4CCC(O[C@H]5C[C@H](Oc6cc(N7C8CCC7CN(c7cc(-c9ccccc9O)nnc7N)C8)ccn6)C5)CC4)CC3)no2)C(C)C)cn1` [compound 675, (2S,4R)-1-((2R)-2-(3-(4-((4-((1r,3r)-3-((4-(3-(3-amino-6-(2-hydroxyphenyl)pyridazin-4-yl)-3,8-diazabicyclo[3.2.1]octan-8-yl)pyridin-2-yl)oxy)cyclobutoxy)piperidin-1-yl)methyl)piperidin-1-yl)isoxazol-5-yl)-3-methylbutanoyl)-4-hydroxy-N-((S)-1-(6-(4-methylthiazol-5-yl)pyridin-3-yl)ethyl)pyrrolidine-2-carboxamide], for which the DC50 under setting [2] is under 0.0025 µM. Moreover, where the note is “BRM degradation, SW1573 cells, read-out: Dmax (% degraded)”, the Dmax is over 75%.
Regarding `Cc1ncsc1-c1ccc([C@H](C)NC(=O)[C@@H]2C[C@@H](O)CN2C(=O)[C@H](c2cc(OCCOCCOCCCCN3CC4(CCN(c5cc(-c6ccccc6O)nnc5N)CC4)C3)no2)C(C)C)cc1` [compound 71, (2S,4R)-1-((S)-2-(3-(2-(2-(4-(7-(3-amino-6-(2-hydroxyphenyl)pyridazin-4-yl)-2,7-diazaspiro[3.5]nonan-2-yl)butoxy)ethoxy)ethoxy)isoxazol-5-yl)-3-methylbutanoyl)-4-hydroxy-N-((S)-1-(4-(4-methylthiazol-5-yl)phenyl)ethyl)pyrrolidine-2-carboxamide], the DC50 under setting [2] was over 0.03 µM.
